Measurements: patent publication US7998965B2, “Glutamate aggrecanase inhibitors” (Wyeth LLC, priority 2005, dated 2011)
pIC50: −log10 of the molar value.

Target: T1, purified recombinant human Aggrecanase-1 (rAgg1) (Homo sapiens, UniProt O75173)
T1 sequence (O75173 213-837): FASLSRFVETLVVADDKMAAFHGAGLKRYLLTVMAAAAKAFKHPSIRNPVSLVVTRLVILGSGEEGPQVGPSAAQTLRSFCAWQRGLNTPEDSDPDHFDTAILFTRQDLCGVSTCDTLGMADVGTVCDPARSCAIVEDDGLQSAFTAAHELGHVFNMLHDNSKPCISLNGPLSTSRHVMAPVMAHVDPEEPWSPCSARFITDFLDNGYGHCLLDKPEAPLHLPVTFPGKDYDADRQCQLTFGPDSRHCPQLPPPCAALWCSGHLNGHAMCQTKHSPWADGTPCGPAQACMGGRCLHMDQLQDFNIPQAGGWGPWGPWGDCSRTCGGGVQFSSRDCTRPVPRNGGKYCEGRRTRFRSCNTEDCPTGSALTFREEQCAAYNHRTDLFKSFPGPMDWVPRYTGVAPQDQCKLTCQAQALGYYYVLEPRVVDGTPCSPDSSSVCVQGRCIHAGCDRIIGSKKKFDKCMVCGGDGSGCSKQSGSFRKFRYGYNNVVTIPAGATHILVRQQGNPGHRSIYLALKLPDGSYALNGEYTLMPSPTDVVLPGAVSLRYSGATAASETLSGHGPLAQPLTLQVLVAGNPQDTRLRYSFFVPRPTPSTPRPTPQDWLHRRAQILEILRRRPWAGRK
Experiment: In vitro fluorescence screen for Aggrecanase-1 inhibitors
Format: biochemical
Conditions: Table 1; for pIC50: read-out: Agg1 IC50

| Structure (SMILES) | pIC50 | Agg1 % @ concentration (@ 16,700 (nM)) [% @] |
| --- | --- | --- |
| O=C(O)CC[C@H](NC(=O)c1ccc(-c2ccccc2)cc1)C(=O)NCc1ccco1 [Example 8P, N^2-(1,1′-biphenyl-4-ylcarbonyl)-N^1-(2-furylmethyl)-L-α-glutamine] | 6.54 |  |
| CC(C)NC(=O)[C@H](CCC(=O)O)NC(=O)c1ccc(-c2ccccc2)cc1 [Example 8PPP, N^2-(biphenyl-4-ylcarbonyl)-N^1-isopropyl-L-α-glutamine] | 6.89 |  |
| CCCCCCNC(=O)[C@H](CCC(=O)O)NC(=O)c1cccc2c1Cc1ccccc1-2 [Example 8PPPP, N^2-(9H-fluoren-1-ylcarbonyl)-N^1-hexyl-L-α-glutamine] | < 4.30 |  |
| COc1cccc(CNC(=O)[C@H](CCC(=O)O)NC(=O)Cc2ccc(-c3ccccc3)cc2)c1 [Example 8PPPPPP, N^2-(1,1′-biphenyl-4-ylacetyl)-N^1-(3-methoxybenzyl)-L-α-glutamine] | < 4.48 |  |
| O=C(O)CC[C@H](NC(=O)c1ccc(-c2ccccc2)cc1)C(=O)NCc1ccncc1 [Example 8QQQ, N^2-(biphenyl-4-ylcarbonyl)-N^1-(pyridin-4-ylmethyl)-L-α-glutamine] | 6.48 |  |
| CCCCCCNC(=O)[C@H](CCC(=O)O)NC(=O)c1ccc(Oc2ccccc2)cc1 [Example 8QQQQ, N^1-hexyl-N^2-(4-phenoxybenzoyl)-L-α-glutamine] | 5.02 |  |
| O=C(O)CC[C@H](NC(=O)c1ccc(-c2ccccc2)cc1)C(=O)Nc1ccccc1Cc1ccccc1 [Example 8QQQQQQ, N^1-(2-benzylphenyl)-N^2-(1,1′-biphenyl-4-ylcarbonyl)-L-α-glutamine] | 6.16 |  |
| CCCCCCNC(=O)[C@H](CCC(=O)O)NC(=O)c1ccc2c(c1)C(=O)c1ccccc1-2 [Example 8RRRR, N^1-hexyl-N^2-[(9-oxo-9H-fluoren-2-yl)carbonyl]-L-α-glutamine] | 6.91 |  |
| O=C(O)CC[C@H](NC(=O)c1ccc2ccccc2c1)C(=O)NCCCc1ccccc1 [Example 8RRRRRR, N^2-2-naphthoyl-N^1-(3-phenylpropyl)-L-α-glutamine] | 5.44 |  |
| O=C(O)CC[C@H](NC(=O)c1ccc(C(=O)c2ccccc2)cc1)C(=O)NCc1ccccc1 [Example 8SSSS, N^2-(4-benzoylbenzoyl)-N^1-benzyl-L-α-glutamine] | < 3.70 |  |
| O=C(O)CC[C@H](NC(=O)c1ccc2c(c1)C(=O)c1ccccc1-2)C(=O)NCCCc1ccccc1 [Example 8SSSSSS, N^2-[(9-oxo-9H-fluoren-2-yl)carbonyl]-N^1-(3-phenylpropyl)-L-α-glutamine] | 6.84 |  |
| O=C(O)CC[C@H](NC(=O)c1ccc(-c2ccccc2)cc1)C(=O)NCCc1ccccc1F [Example 8TT, N^2-(biphenyl-4-ylcarbonyl)-N^1-[2-(2-fluorophenyl)ethyl]-L-α-glutamine] | 6.52 |  |
| CC(C)(NC(=O)[C@H](CCC(=O)O)NC(=O)c1ccc(-c2ccccc2)cc1)c1ccccc1 [Example 8TTT, N^2-(biphenyl-4-ylcarbonyl)-N^1-(1-methyl-1-phenylethyl)-L-α-glutamine] | < 5.00 |  |
| O=C(O)CC[C@H](NC(=O)c1ccc(Oc2ccccc2)cc1)C(=O)NCCCc1ccccc1 [Example 8TTTTTT, N^2-(4-phenoxybenzoyl)-N^1-(3-phenylpropyl)-L-α-glutamine] | 4.76 |  |
| O=C(O)CC[C@H](NC(=O)c1ccc(-c2ccccc2)cc1)C(=O)NCCc1ccc(Cl)cc1 [Example 8UU, N^2-(biphenyl-4-ylcarbonyl)-N^1-[2-(4-chlorophenyl)ethyl]-L-α-glutamine] | 6.70 |  |
| O=C(O)CC[C@H](NC(=O)c1ccc(Nc2ncccn2)cc1)C(=O)NCc1ccccc1 [Example 8UUUUUU, N^1-benzyl-N^2-[4-(pyrimidin-2-ylamino)benzoyl]-L-α-glutamine] | 5.40 |  |
| O=C(O)CC[C@H](NC(=O)c1ccc2c(c1)Cc1ccccc1-2)C(=O)NCCCCCCO [Example 8VVVVVV, N^2-(9H-fluoren-2-ylcarbonyl)-N^1-(6-hydroxyhexyl)-L-α-glutamine] | 7.34 |  |
| O=C(O)CC[C@H](NC(=O)c1ccc(-c2ccccc2)cc1)C(=O)NCc1cccc(F)c1 [Example 8XX, N^2-(1,1′-biphenyl-4-ylcarbonyl)-N^1-(3-fluorobenzyl)-L-α-glutamine] | 6.52 |  |
| O=C(O)CC[C@H](NC(=O)c1ccc(-c2ccccc2)cc1)C(=O)NCc1ccccc1F [Example 8ZZ, N^2-(1,1′-biphenyl-4-ylcarbonyl)-N^1-(2-fluorobenzyl)-L-α-glutamine] | 6.68 |  |
| CCOc1ccc(-c2ccc(C(=O)N[C@@H](CCC(=O)O)C(=O)NCc3ccccc3)cc2)cc1 [Example 14, N^1-benzyl-N^2-[(4′-ethoxy-1,1′-biphenyl-4-yl)carbonyl]-L-α-glutamine] |  | 60 |

Further lines, with some results ahead:

| pIC50 | Structure (SMILES) | Agg1 % @ concentration (@ 16,700 (nM)) [% @] |
| --- | --- | --- |
| 6.70 | O=Cc1ccc(-c2ccc(CCNC(=O)[C@H](CCC(=O)O)NC(=O)c3ccc(-c4ccccc4)cc3)cc2)cc1 [Example 9, N^2-(biphenyl-4-ylcarbonyl)-N^1-[2-(4′-formylbiphenyl-4-yl)ethyl]-L-α-glutamine] |  |
| 6.82 | COc1ccc(-c2ccc(CCNC(=O)[C@H](CCC(=O)O)NC(=O)c3ccc(-c4ccccc4)cc3)cc2)cc1 [Example 10B, N^2-(biphenyl-4-ylcarbonyl)-N^1-[2-(4′-methoxybiphenyl-4-yl)ethyl]-L-α-glutamine] |  |
| 6.43 | CCOc1ccccc1-c1ccc(CCNC(=O)[C@H](CCC(=O)O)NC(=O)c2ccc(-c3ccccc3)cc2)cc1 [Example 10E, N^2-(biphenyl-4-ylcarbonyl)-N^1-[2-(2′-ethoxybiphenyl-4-yl)ethyl]-L-α-glutamine] |  |
| 6.52 | O=C(O)CC[C@H](NC(=O)c1ccc(-c2ccccc2)cc1)C(=O)NCCc1ccc(-c2ccncc2)cc1 [Example 10H, N^2-(biphenyl-4-ylcarbonyl)-N^1-[2-(4-pyridin-4-ylphenyl)ethyl]-L-α-glutamine] |  |
| 6.49 | O=C(O)CC[C@H](NC(=O)c1ccc(-c2ccccc2)cc1)C(=O)NCCc1cccc(-c2ccccn2)c1 [Example 10I, N^2-(biphenyl-4-ylcarbonyl)-N^1-[2-(3-pyridin-2-ylphenyl)ethyl]-L-α-glutamine] |  |
| 6.59 | O=Cc1ccc(-c2cccc(CCNC(=O)[C@H](CCC(=O)O)NC(=O)c3ccc(-c4ccccc4)cc3)c2)cc1 [Example 10J, N^2-(biphenyl-4-ylcarbonyl)-N^1-[2-(4′-formylbiphenyl-3-yl)ethyl]-L-α-glutamine] |  |
| 6.33 | O=C(O)CC[C@H](NC(=O)c1ccc(-c2ccccc2)cc1)C(=O)NCc1cccc(-c2ccc(C(F)(F)F)cc2)c1 [Example 10O, N^2-(biphenyl-4-ylcarbonyl)-N^1-{[4′-(trifluoromethyl)biphenyl-3-yl]methyl}-L-α-glutamine] |  |
| 6.15 | C#Cc1ccc(-c2cccc(CNC(=O)[C@H](CCC(=O)O)NC(=O)c3ccc(-c4ccccc4)cc3)c2)cc1 [Example 10P, N^2-(biphenyl-4-ylcarbonyl)-N^1-[(4′-ethynylbiphenyl-3-yl)methyl]-L-α-glutamine] |  |
| 4.46 | C#Cc1ccc(-c2ccc(C(=O)N[C@@H](CCC(=O)O)C(=O)NCc3ccccc3)cc2)cc1 [Example 12B, N^1-benzyl-N^2-[(4′-ethynyl-1,1′-biphenyl-4-yl)carbonyl]-L-α-glutamine] |  |
| 4.60 | O=C(O)CC[C@H](NC(=O)c1ccc(-c2cccnc2)cc1)C(=O)NCc1ccccc1 [Example 12C, N^1-benzyl-N^2-(4-pyridin-3-ylbenzoyl)-L-α-glutamine] |  |
| < 4.00 | O=C(O)CC[C@H](NC(=O)c1ccc(-c2nccs2)cc1)C(=O)NCc1ccccc1 [Example 12D, N^1-benzyl-N^2-[4-(1,3-thiazol-2-yl)benzoyl]-L-α-glutamine] |  |
| 5.74 | O=C(O)CC[C@H](NC(=O)c1ccc(-c2ccccn2)cc1)C(=O)NCc1ccccc1 [Example 12E, N^1-benzyl-N^2-(4-pyridin-2-ylbenzoyl)-L-α-glutamine] |  |
| ~4.30 | Cc1ccc(C)c(-c2ccc(C(=O)N[C@@H](CCC(=O)O)C(=O)NCc3ccccc3)cc2)c1 [Example 13B, N^1-benzyl-N^2-[(2′,5′-dimethyl-1,1′-biphenyl-4-yl)carbonyl]-L-α-glutamine] |  |
| 5.02 | CCc1ccc(-c2ccc(C(=O)N[C@@H](CCC(=O)O)C(=O)NCc3ccccc3)cc2)cc1 [Example 13C, N^1-benzyl-N^2-[(4′-ethyl-1,1′-biphenyl-4-yl)carbonyl]-L-α-glutamine] |  |
| ~4.60 | CCOc1ccccc1-c1ccc(C(=O)N[C@@H](CCC(=O)O)C(=O)NCc2ccccc2)cc1 [Example 13E, N^1-benzyl-N^2-[(2′-ethoxy-1,1′-biphenyl-4-yl)carbonyl]-L-α-glutamine] |  |
| ~6.70 | Cc1cccc(C)c1-c1ccc(C(=O)N[C@@H](CCC(=O)O)C(=O)NCc2ccccc2)cc1 [Example 13F, N^1-benzyl-N^2-[(2′,6′-dimethyl-1,1′-biphenyl-4-yl)carbonyl]-L-α-glutamine] |  |
| ~5.60 | C=Cc1ccc(-c2ccc(C(=O)N[C@@H](CCC(=O)O)C(=O)NCc3ccccc3)cc2)cc1 [Example 13G, N^1-benzyl-N^2-[(4′-vinyl-1,1′-biphenyl-4-yl)carbonyl]-L-α-glutamine] |  |
| < 4.66 | CCCOc1ccc(-c2ccc(C(=O)N[C@@H](CCC(=O)O)C(=O)NCc3ccccc3)cc2)cc1 [Example 15A, N^1-benzyl-N^2-[(4′-propoxy-1,1′-biphenyl-4-yl)carbonyl]-L-α-glutamine] |  |
